Patent US9549964B2, “Diagnosis, prognosis, and treatment of kidney disease” (Beth Israel Deaconess Medical Center, Inc., priority 2011, dated 2017)
Residues, ends and D or L forms follow the SMILES beside them.

How the values were obtained:
[1] = test system: human serum albumin; experiment: Prevention of albumin carbamylation by cyanate in the presence of competing nucleophiles (% C-Alb by LC-MS); settings: 10 mM scavenger, 0.25 mM cyanate, 37° C., 14 hours; for % CarbAlb Average +/− SD / % Decrease compared to no inhibitor: human serum albumin 4 mg/ml
Method: The pH of each was adjusted to pH 7.4 using HCl. HSA (4 mg/mL) was added to each amino acid solution, and then mixed 1:1 with 0.5 mM potassium cyanate in 100 mM potassium phosphate pH 7.4 (0.25 mM cyanate final concentration). […] Desalted albumin was then denatured and digested for analysis as described above.
To this, we added 0.25 mM cyanate, incubated at 37° C. for 14 hours, and analyzed for % C-Alb thereafter (Table 11).

[2] = Cyanate titration of an equimolar amino acid mixture (susceptibility of amino acids to carbamylation); settings: increasing cyanate, physiological buffer pH 7.4, overnight 37° C.
Method: Carbamylation titration experiments were performed using an amino acid standard mix from Sigma Aldrich (Cat. No. AAS18) supplemented with tryptophan, cysteine, and glutamine; all amino acids were equimolar (2.5 mM stock). The 0.1 N HCl in the standard solution was neutralized with ammonium hydroxide and removed by lyophilization, and the dried amino acids were diluted to final concentration of 50 μM (each) in 100 mM potassium phosphate pH 7.4. […] Carbamylation was halted with addition of 1 M HCl, and excess cyanate and HCl were removed by vacuum lyophilization at room temperature. Isotopic standards were then mixed with the reactions, the tube were re-lyophilized, and amino acid mixtures were then S-alkylated with iodoacetamide, butylated with butanolic HCl, and analyzed using methods similar to those described for serum amino acids.
To differentiate the isocyanate-scavenging ability of individual amino acids, we added increasing concentrations of cyanate to an equimolar mixture of all twenty amino acids in a physiological buffer. As expected, increasing concentration of cyanate produced linear increases of all carbamylated amino acids and depletion of their unmodified forms (FIGS. 9A and 9B). From the titration curves, we calculated the cyanate concentration at which 10% unmodified amino acid forms were depleted.

## NCCS(=O)(=O)O [Taurine]
[1]
  Prevention of C-Alb formation / cyanate scavenging (in words): effectively scavenged cyanate
  % CarbAlb Average +/− SD: 22 ± 1.7%

## N[C@@H](Cc1c[nH]c2ccccc12)C(=O)O [Tryptophan]
[1]
  % CarbAlb Average +/− SD: 32 ± 2.7%

## CC(C)C[C@H](N)C(=O)O [Leucine]
[1]
  % CarbAlb Average +/− SD: 37 ± 2.2%

## NCCCC[C@H](N)C(=O)O [Lysine]
[1]
  % CarbAlb Average +/− SD: 31 ± 0.9%
  % Decrease compared to no inhibitor: 21%
[2]
  Susceptibility to carbamylation / cyanate binding (in words): did not avidly bind cyanate

## N[C@@H](Cc1c[nH]cn1)C(=O)O [Histidine]
[1]
  % CarbAlb Average +/− SD: 26 ± 1.0%
[2]
  Susceptibility to carbamylation / cyanate binding (in words): prone to carbamylation at low cyanate concentrations

## NC(=O)CC[C@H](N)C(=O)O [Glutamine]
[1]
  % CarbAlb Average +/− SD: 32 ± 2.9%

## O=C(O)[C@@H]1CCCN1 [Proline]
[1]
  % CarbAlb Average +/− SD: 34 ± 1.6%

## CC(C)[C@H](N)C(=O)O [Valine]
[1]
  % CarbAlb Average +/− SD: 33 ± 1.1%
  % Decrease compared to no inhibitor: 16%

## NCC(=O)NCC(=O)O [Glycylglycine] (H-Gly-Gly-OH)
[2]
  Susceptibility to carbamylation / cyanate binding (in words): more strongly carbamylated than glycine or other amino acids

## NCC(=O)O [Glycine]
[1]
  % CarbAlb Average +/− SD: 31 ± 1.8%

## N[C@@H](CCC(=O)O)C(=O)O [Glutamate]
[1]
  % CarbAlb Average +/− SD: 38 ± 1.2%
  % Decrease compared to no inhibitor: 3%

## N[C@@H](CS)C(=O)O [Cysteine]
[1]
  Prevention of C-Alb formation / cyanate scavenging (in words): prevented C-Alb formation
  % CarbAlb Average +/− SD: 23 ± 1.9%
[2]
  Susceptibility to carbamylation / cyanate binding (in words): very high cyanate binding avidity by the free thiol group

## C[C@H](N)C(=O)O [Alanine]
[1]
  % CarbAlb Average +/− SD: 32 ± 1.7%

## N=C(N)NCCC[C@H](N)C(=O)O [Arginine]
[1]
  % CarbAlb Average +/− SD: 27 ± 1.6%
[2]
  Susceptibility to carbamylation / cyanate binding (in words): prone to carbamylation at low cyanate concentrations

## N[C@@H](CCC(=O)N[C@@H](CS)C(=O)NCC(=O)O)C(=O)O [Glutathione]
[1]
  % CarbAlb Average +/− SD: 29 ± 1.4%
